In patent US11576944B2, “Grape extracts and methods relating thereto” (priority 2016, dated 2023):
“Also recorded” adds a separate entry of the source.

Columns and labels:
[1] = system: ZR-75-1 human ER+ breast tumors; assay: ZR-75-1 ER+ breast tumors in athymic mice, with tamoxifen; format: in vivo, mouse; conditions: 7 weeks
Description: The mammary fat pads of athymic mice were injected with ZR-75-1 ER+ cells (1×10^6 cells), and tumor growth was measured every third day using a caliper.
Sections were incubated with an antibody to Ki67, a marker of proliferation.
The 4th inguinal mammary pads of athymic mice (female, 15-20 g, 5-6 weeks of age) were injected with 1×10^6 actively growing ZR-75-1 or MCF7 human ER+ breast cancer cells. […] Tumor size was measured twice a week in conscious animals, using a caliper, and tumor volume was calculated using the formula for a semi-ellipsoid (4/3πr^3)/2)]. […] After 7 weeks of treatment for the mice containing ZR-75-1 human ER+ breast tumors or 5 weeks of treatment for the mice containing MCF7 ER+ breast tumors, the mice were sacrificed and the tumors were removed and weighed.

[2] = system: MCF7 human ER+ breast tumors; assay: MCF7 ER+ breast tumors in athymic mice, with tamoxifen; format: in vivo, mouse; conditions: 5 weeks
Description: The mammary fat pads of athymic mice were injected with MCF7 human ER+ cells (1×10^6 cells) and tumor growth was measured every third day using a caliper.
The 4th inguinal mammary pads of athymic mice (female, 15-20 g, 5-6 weeks of age) were injected with 1×10^6 actively growing ZR-75-1 or MCF7 human ER+ breast cancer cells. The mice were group housed in cages with HEPA-filtered air on 12-h light/dark cycles and were fed regular rat chow ad libitum. Tumor size was measured twice a week in conscious animals, using a caliper, and tumor volume was calculated using the formula for a semi-ellipsoid (4/3πr^3)/2)]. […] After 7 weeks of treatment for the mice containing ZR-75-1 human ER+ breast tumors or 5 weeks of treatment for the mice containing MCF7 ER+ breast tumors, the mice were sacrificed and the tumors were removed and weighed.

[3] = system: angiotensin II (Ang II)-induced hypertension; assay: Ang II-induced hypertension and cardiac damage in rats; format: in vivo, rat; conditions: Ang II alone 24 μg/kg/h via osmotic mini-pump, at 4 weeks (from 120.4±2.4)
Description: The effect of p-MGE on hypertension and hypertension-induced cardiac damage was measured in rats with angiotensin II (Ang II)-induced hypertension. Sprague-Dawley rats (male, 8-12 weeks of age) were treated for 4 weeks with regular drinking water (Control), p-MGE alone (0.2 mg/mL of total phenolics in their drinking water), Ang II alone (24 μg/kg/h via implanted osmotic mini-pump) or p-MGE and Ang II. For a 250 g rat, this amount of p-MGE corresponds to approximately 20 mg phenolics/kg/day. Administration of p-MGE was initiated 1 week prior to treatment with Ang II. Blood pressure was recorded weekly by tail-cuff plethysmography, at the same time of day by the same individual. […] Scans to quantify cardiac parameters were taken in M mode parasternal short axis view at mid-papillary level, Tissue Doppler in 4 chamber view at the mitral annulus, and pulse wave Doppler in 4 chamber view to measure transmitral inflow. The ejection fraction of the heart and fractional shortening were measured in M mode parasternal short axis view at the mid-papillary level, using the VisualSonics Vevo 2100 High-Resolution Imaging System, as a measure of systolic function. […] Diastolic function was measured as e′, to assess the relaxation of the left ventricle, and E/e′, to assess the filling pressure of the left ventricle. […]

[4] = p-MGE 0.1 mg phenolics/mL drinking water, tamoxifen ~32 mg/kg/d in chow, or both
[5] = p-MGE 0.1 mg phenolics/mL, tamoxifen ~32 mg/kg/d, or both

Molecule | tumor volume / growth [1, 4] | Ki67 positive cells in tumor sections [1, 5] | tumor weight [1, 5] | tumor volume / growth [2, 4] | tumor weight [2, 5] | systolic blood pressure (tail cuff) [3]
CC/C(=C(\c1ccccc1)c1ccc(OCCN(C)C)cc1)c1ccccc1 [tamoxifen] | reduced the growth of both ER+ tumors; also recorded: also reduced tumor size | associated with a reduction in the number of cells which were positive for the proliferation marker Ki67; also recorded: also significantly reduced proliferation | also reduced tumor weight | reduced the growth of both ER+ tumors; also recorded: also reduced tumor size | also reduced tumor weight | –
angiotensin II (DRVYIHPF; Angiotensin-2; UniProt P01015 25-32, looked up) [Ang II, used to induce hypertension in rats] | – | – | – | – | – | 213.1±6.8 mm Hg
